Data published in ChEMBL document CHEMBL1201862, “PubChem BioAssay data set” (2004).
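How tested: cells in 96-well plates exposed to compound for 48 hours at five concentrations. GI50 marks 50% less growth.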 The source made the active and inactive calls. No stated cut-off is given here; in the data, active = GI50 up to about 1.1 µM and inactive = higher.

Legend:
Assay in all cases: DTP human tumour cell line panel, 48 h
SN12C = tested on: SN12C
HOP-62 = tested on: HOP-62
NCI/ADR-RES = tested on: NCI/ADR-RES
BT-549 = tested on: BT-549
786-0 = tested on: 786-0
OVCAR-3 = tested on: OVCAR-3
MCF7 = tested on: MCF7
KM12 = tested on: KM12
NCI-H522 = tested on: NCI-H522
HT-29 = tested on: HT-29
CCRF-CEM = tested on: CCRF-CEM
MDA-N = tested on: MDA-N
SNB-75 = tested on: SNB-75
SW-620 = tested on: SW-620
HCC 2998 = tested on: HCC 2998
COLO 205 = tested on: COLO 205
OVCAR-5 = tested on: OVCAR-5
OVCAR-8 = tested on: OVCAR-8
EKVX = tested on: EKVX
NCI-H460 = tested on: NCI-H460

SMILES	GI50 (SN12C)	GI50 (HOP-62)	GI50 (NCI/ADR-RES)	GI50 (BT-549)	GI50 (786-0)	GI50 (OVCAR-3)	GI50 (MCF7)	GI50 (KM12)	GI50 (NCI-H522)	GI50 (HT-29)	GI50 (CCRF-CEM)	GI50 (MDA-N)	GI50 (SNB-75)	GI50 (SW-620)	GI50 (HCC 2998)	GI50 (COLO 205)	GI50 (OVCAR-5)	GI50 (OVCAR-8)	GI50 (EKVX)	GI50 (NCI-H460)
Cc1cc(C)nc(NC(=O)c2ccc(Br)s2)c1	> 100 µM (inactive)	> 100 µM (inactive)	> 100 µM (inactive)	> 100 µM (inactive)	> 100 µM (inactive)	> 100 µM (inactive)	28 µM (inactive)	> 100 µM (inactive)	> 100 µM (inactive)	> 100 µM (inactive)	3.37 µM (inactive)	31.8 µM (inactive)	47.8 µM (inactive)	> 100 µM (inactive)	> 100 µM (inactive)	10.6 µM (inactive)	17.7 µM (inactive)	> 100 µM (inactive)	76.7 µM (inactive)	> 100 µM (inactive)
COc1cc([C@@H]2c3cc4c(cc3[C@@H](OC3OC5CO[C@@H](c6cccs6)OC5C(O)C3O)[C@H]3COC(=O)[C@H]23)OCO4)cc(OC)c1O (stereo not given in full)	0.313 µM (active)	0.135 µM (active)	23.4 µM (inactive)	0.586 µM (active)	0.285 µM (active)	1.73 µM (inactive)	0.038 µM (active)	0.753 µM (active)	0.482 µM (active)	1.61 µM (inactive)	0.046 µM (active)	1.03 µM (active)	0.502 µM (active)	0.24 µM (active)	0.671 µM (active)	0.527 µM (active)	1.77 µM (inactive)	0.538 µM (active)	1.3 µM (inactive)	0.0171 µM (active)
CC1CSC(=S)N1C(=O)N1C(=S)SCC1C (stereo not given)	20.5 µM (inactive)	43.4 µM (inactive)	19.1 µM (inactive)	24.7 µM (inactive)	27.8 µM (inactive)	27.4 µM (inactive)	21.2 µM (inactive)	27.8 µM (inactive)	11.5 µM (inactive)	27.4 µM (inactive)	8.73 µM (inactive)	19.6 µM (inactive)	23.4 µM (inactive)	20.4 µM (inactive)	36.6 µM (inactive)	16.3 µM (inactive)	30.3 µM (inactive)	16.7 µM (inactive)	28.8 µM (inactive)	24.1 µM (inactive)
O=c1c2cc([N+](=O)[O-])ccc2n(Cc2ccccc2)n1Cc1ccccc1	20.5 µM (inactive)	> 31.6 µM (inactive)	11.2 µM (inactive)	15.3 µM (inactive)	21.7 µM (inactive)	15.6 µM (inactive)	14 µM (inactive)	10.5 µM (inactive)	12 µM (inactive)	15.9 µM (inactive)	14.7 µM (inactive)	12.2 µM (inactive)	10.4 µM (inactive)	17.4 µM (inactive)	17.9 µM (inactive)	18.8 µM (inactive)	> 31.6 µM (inactive)	11.9 µM (inactive)	17.2 µM (inactive)	11.8 µM (inactive)
COc1cc(C(c2ccc3c(c2)OCO3)N2C(=O)CCC2C(=O)O)cc(OC)c1OC (stereo not given)	> 100 µM (inactive)	> 100 µM (inactive)	> 100 µM (inactive)	> 100 µM (inactive)	> 100 µM (inactive)	> 100 µM (inactive)	> 100 µM (inactive)	> 100 µM (inactive)	> 100 µM (inactive)	> 100 µM (inactive)	> 100 µM (inactive)	> 100 µM (inactive)	> 100 µM (inactive)	> 100 µM (inactive)	> 100 µM (inactive)	> 100 µM (inactive)	> 100 µM (inactive)	> 100 µM (inactive)	> 100 µM (inactive)	> 100 µM (inactive)
Cc1nc2sc(C(=O)c3ccc(Cl)cc3)c(N)c2c(-c2ccccc2Cl)c1C(=O)Nc1ccccc1	9.42 µM (inactive)	15.8 µM (inactive)	19.5 µM (inactive)	20.2 µM (inactive)	10 µM (inactive)	16.4 µM (inactive)	15.2 µM (inactive)	18.5 µM (inactive)	5.51 µM (inactive)	12.2 µM (inactive)	3.77 µM (inactive)	10.8 µM (inactive)	11.4 µM (inactive)	6.22 µM (inactive)	23.6 µM (inactive)	18.3 µM (inactive)	16 µM (inactive)	13.4 µM (inactive)	21.9 µM (inactive)	9.02 µM (inactive)
